Assay results published in PubChem BioAssay AID1963442 (Molecular Pharmacology Branch, DTP, NCI, 2024).

Test system: MPNST complex spheroid with HUVEC/MSC, growth, % test/control
Test: Anticancer human tumor MPNST cell line growth inhibition [Asc];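 note: compounds left on spheroids for seven days before reading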
Conditions: for IC50: curve of first compound; for viability, T/C: stronger effect = lower value
Description: Multicellular complex tumor spheroid response to apoptosis pathway targeting inhibitors Alrizomadlin, Pelcitoclax, and Dasminapant in combination with a variety of drugs and investigational agents in selected tumor cell lines
The MDM2 inhibitor alrizomadlin, the Bcl-2/Bcl-xL inhibitor pelcitoclax, and the IAPs inhibitor dasminapant were evaluated both individually and in combination with standard of care and investigational anticancer small molecules within a complex spheroid model of solid tumors. . Complex spheroids include a stromal component modeled by human endothelial cells (HUVEC) and fibroblasts modeled by human mesenchymal stem cells (MSCs). The concentration ranges selected for each drug and investigational agent were based upon clinically achievable concentrations if the clinical Cmax of the agent was known.
Compounds. The drugs and investigational agents: alrizomadlin (APG-115; NSC831270), pelcitoclax (APG-1252; NSC835773), dasminapant (APG-1387;NSC834197), TAK-243 (NSC785004), copanlisib (NSC809693), olaparib (NSC753686), talazoparib (NSC767125), cobimetinib (NSC 768068), eltanexor (KPT-8602, NSC 794443), abemaciclib (NSC 768073), sotorasib (NSC818433), adagrasib (NSC 831453), MRTX-1133 (NSC 836407), Iadademestat (ORY1001, NSC 806812), and RMC-4630 (NSC839698), were obtained from the NCI Developmental Therapeutics Program Chemical Repository. The FDA-approved anticancer drug set is available from the Developmental Therapeutics Program at https://dtp.cancer.gov/organization/dscb/obtaining/available plates.htm. […] The stock solutions were prepared in dimethyl sulfoxide (DMSO, Sigma-Aldrich, St. Louis, MO, cat. D2650) at 800-fold the tested concentration and stored at -70 degrees C prior to their use. All drugs and investigational agents were tested over a range starting from a high concentration at or near the clinical Cmax and decreasing in half-log increments. If the clinical Cmax for an agent had not been determined, the highest concentration tested was 10 microM.
The patient-derived cancer (PDC) cell lines include five colon adenocarcinomas: 186277-243-T-J2-PDC, 616215-338-R-J1-PDC, 439559-082-T-J2-PDC, 463943-066-T-J2-PDC, and 519858-162-T-J1-PDC; three pancreatic carcinomas: 323965-272-R-J2-PDC, 521955-158-R6-J3-PDC, and 521955-158-R2-J5-PDC; two uterine sarcomas: 327498-152-R-J2-PDC and 993429-296-R-J1-PDC; two rhabdomyosarcomas: 755483-174-R-J1-PDC and 772245-204-R-J1-PDC; two soft tissue sarcomas: 126254-015-R-J1-PDC and 494315-158-R-J1-PDC; two malignant fibrous histiocytomas: 317291-083-R-J1-PDC and 596521-263-R-J1-PDC; two breast carcinomas: 171881-019-R-J1-PDC and 885512-296-R-J2-PDC; and one ovarian carcinoma: 6556581-035-R-J-PDC were obtained from the NCI PDMR, (https://pdmr.cancer.gov). The established cell lines HSSY-2 synovial sarcoma (RRID:CVCL 8719), SYO-1 synovial sarcoma (RRID:CVCL_7146), MPNST malignant peripheral neural sheath tumor were obtained from the Sloan Kettering Institute. The following established cell lines were purchased from the American Type Culture Collection (ATCC, Manassas, VA), Sor the received from the NCI repository:, PANC-1 pancreatic carcinoma (CRL-1469, RRID:CVCL_0480), OVCAR-5 ovarian carcinoma (RRID:CVCL_1628), OVCAR-8 ovarian carcinoma (RRID:CVCL_1629), , MCF-7 breast carcinoma (CRL-12584, RRID:CVCL_0031), MDA-MB-231 breast carcinoma (CRL-12532, RRID:CVCL_0062), NCI-H1876 small cell lung carcinoma (CRL-5902, RRID:CVCL_1503), NCI-H510A small cell lung carcinoma (HTB-184, RRID:CVCL_1565), NCI-H1417 (CRL-5869, RRID:CVCL_1469), and NCI-H196 small cell lung carcinoma (CRL-5823, RRID:CVCL_1509). Dr. Peter Houghton (Greehey Children's Cancer Research Institute, University of Texas Health Science Center, San Antonio, TX) provided Rh-18 rhabdomyosarcoma (RRID:CVCL_1659). Pooled donor human umbilical vein endothelial cells (HUVEC, Lonza, cat. CC-2519) and human mesenchymal stem cells (hMSC, Lonza, cat. PT-2501) were purchased from Lonza (Walkersville, MD).
Cell Culture. […]

[1] = second compound 0.03 µM, first compound 0.00316 µM
[2] = second compound 0.03 µM, first compound 0.01 µM
[3] = second compound 0.03 µM, first compound 0.0316 µM
[4] = second compound 0.03 µM, first compound 0.1 µM
[5] = second compound 0.0949 µM, first compound 0.00316 µM
[6] = second compound 0.0949 µM, first compound 0.01 µM
[7] = second compound 0.0949 µM, first compound 0.0316 µM
[8] = second compound 0.0949 µM, first compound 0.1 µM
[9] = second compound 0.3 µM, first compound 0.00316 µM
[10] = second compound 0.3 µM, first compound 0.01 µM
[11] = second compound 0.3 µM, first compound 0.0316 µM
[12] = second compound 0.3 µM, first compound 0.1 µM
[13] = second compound 0.949 µM, first compound 0.00316 µM
[14] = second compound 0.949 µM, first compound 0.01 µM
[15] = second compound 0.949 µM, first compound 0.0316 µM
[16] = second compound 0.949 µM, first compound 0.1 µM
[17] = second compound 3 µM, first compound 0.00316 µM
[18] = second compound 3 µM, first compound 0.01 µM
[19] = second compound 3 µM, first compound 0.0316 µM
[20] = second compound 3 µM, first compound 0.1 µM

## COc1c(OCCCN2CCOCC2)ccc2c3n(c(=NC(=O)c4cnc(N)nc4)nc12)CCN3 + CCN1C(C(=O)NC23CCC(C(=O)O)(CC2)CC3)C(c2cccc(Cl)c2F)C2(C(=O)Nc3cc(Cl)ccc32)C12CCCCC2
Second compound 0.03 µM
  IC50: 0.0254 µM
Second compound 0.0949 µM
  IC50: 0.0297 µM
Second compound 0.3 µM
  IC50: 0.0384 µM
Second compound 0.949 µM
  IC50: 0.0272 µM
Second compound 3 µM
  IC50: 0.0209 µM
[1]
  viability, T/C: 66.2%
[2]
  viability, T/C: 58.8%
[3]
  viability, T/C: 47%
[4]
  viability, T/C: 37.1%
Second compound 0.03 µM, first compound 0.316 µM
  viability, T/C: 25.9%
Second compound 0.03 µM, first compound 1 µM
  viability, T/C: 14.6%
[5]
  viability, T/C: 75.6%
[6]
  viability, T/C: 58.2%
[7]
  viability, T/C: 51.5%
[8]
  viability, T/C: 36.5%
Second compound 0.0949 µM, first compound 0.316 µM
  viability, T/C: 30.3%
Second compound 0.0949 µM, first compound 1 µM
  viability, T/C: 17.4%
[9]
  viability, T/C: 77.3%
[10]
  viability, T/C: 64.1%
[11]
  viability, T/C: 55%
[12]
  viability, T/C: 36.5%
Second compound 0.3 µM, first compound 0.316 µM
  viability, T/C: 24.4%
Second compound 0.3 µM, first compound 1 µM
  viability, T/C: 17.4%
[13]
  viability, T/C: 81.3%
[14]
  viability, T/C: 60.4%
[15]
  viability, T/C: 52.2%
[16]
  viability, T/C: 33.2%
Second compound 0.949 µM, first compound 0.316 µM
  viability, T/C: 21%
Second compound 0.949 µM, first compound 1 µM
  viability, T/C: 17.3%
[17]
  viability, T/C: 74%
[18]
  viability, T/C: 62%
[19]
  viability, T/C: 43%
[20]
  viability, T/C: 28%
Second compound 3 µM, first compound 0.316 µM
  viability, T/C: 19.1%
Second compound 3 µM, first compound 1 µM
  viability, T/C: 15.6%

## NC(=O)C(=Cn1cnc(-c2cc(C(F)(F)F)cc(C(F)(F)F)c2)n1)c1cncnc1 + CCN1C(C(=O)NC23CCC(C(=O)O)(CC2)CC3)C(c2cccc(Cl)c2F)C2(C(=O)Nc3cc(Cl)ccc32)C12CCCCC2
Second compound 0.03 µM
  IC50: 0.172 µM
Second compound 0.0949 µM
  IC50: 0.139 µM
Second compound 0.3 µM
  IC50: 0.198 µM
Second compound 0.949 µM
  IC50: 0.088 µM
Second compound 3 µM
  IC50: 0.0808 µM
Second compound 0.03 µM, first compound 0.000949 µM
  viability, T/C: 64.2%
Second compound 0.03 µM, first compound 0.003 µM
  viability, T/C: 78.6%
Second compound 0.03 µM, first compound 0.00949 µM
  viability, T/C: 66.9%
Second compound 0.03 µM, first compound 0.03 µM
  viability, T/C: 64%
Second compound 0.03 µM, first compound 0.0949 µM
  viability, T/C: 56.2%
Second compound 0.03 µM, first compound 0.3 µM
  viability, T/C: 43.7%
Second compound 0.0949 µM, first compound 0.000949 µM
  viability, T/C: 75%
Second compound 0.0949 µM, first compound 0.003 µM
  viability, T/C: 90.7%
Second compound 0.0949 µM, first compound 0.00949 µM
  viability, T/C: 79.7%
Second compound 0.0949 µM, first compound 0.03 µM
  viability, T/C: 71%
Second compound 0.0949 µM, first compound 0.0949 µM
  viability, T/C: 55.5%
Second compound 0.0949 µM, first compound 0.3 µM
  viability, T/C: 40.1%
Second compound 0.3 µM, first compound 0.000949 µM
  viability, T/C: 90.9%
Second compound 0.3 µM, first compound 0.003 µM
  viability, T/C: 99.1%
Second compound 0.3 µM, first compound 0.00949 µM
  viability, T/C: 90.9%
Second compound 0.3 µM, first compound 0.03 µM
  viability, T/C: 79.3%
Second compound 0.3 µM, first compound 0.0949 µM
  viability, T/C: 64.8%
Second compound 0.3 µM, first compound 0.3 µM
  viability, T/C: 42%
Second compound 0.949 µM, first compound 0.000949 µM
  viability, T/C: 95.2%
Second compound 0.949 µM, first compound 0.003 µM
  viability, T/C: 97%
Second compound 0.949 µM, first compound 0.00949 µM
  viability, T/C: 89.3%
Second compound 0.949 µM, first compound 0.03 µM
  viability, T/C: 71.6%
Second compound 0.949 µM, first compound 0.0949 µM
  viability, T/C: 47.8%
Second compound 0.949 µM, first compound 0.3 µM
  viability, T/C: 42.5%
Second compound 3 µM, first compound 0.000949 µM
  viability, T/C: 93.9%
Second compound 3 µM, first compound 0.003 µM
  viability, T/C: 77.8%
Second compound 3 µM, first compound 0.00949 µM
  viability, T/C: 66.1%
Second compound 3 µM, first compound 0.03 µM
  viability, T/C: 56%
Second compound 3 µM, first compound 0.0949 µM
  viability, T/C: 50.7%
Second compound 3 µM, first compound 0.3 µM
  viability, T/C: 42.6%

## NC1CCC(NC2CC2c2ccccc2)CC1 (stereo not given) + CCN1C(C(=O)NC23CCC(C(=O)O)(CC2)CC3)C(c2cccc(Cl)c2F)C2(C(=O)Nc3cc(Cl)ccc32)C12CCCCC2
Second compound 0.03 µM
  IC50: > 0.1 µM
Second compound 0.0949 µM
  IC50: > 0.1 µM
Second compound 0.3 µM
  IC50: > 0.1 µM
Second compound 0.949 µM
  IC50: > 0.1 µM
Second compound 3 µM
  IC50: > 0.1 µM
Second compound 0.03 µM, first compound 0.000316 µM
  viability, T/C: 79.1%
Second compound 0.03 µM, first compound 0.001 µM
  viability, T/C: 72.2%
[1]
  viability, T/C: 67.4%
[2]
  viability, T/C: 74.8%
[3]
  viability, T/C: 87%
[4]
  viability, T/C: 82.7%
Second compound 0.0949 µM, first compound 0.000316 µM
  viability, T/C: 98.7%
Second compound 0.0949 µM, first compound 0.001 µM
  viability, T/C: 87.6%
[5]
  viability, T/C: 92.6%
[6]
  viability, T/C: 91.5%
[7]
  viability, T/C: 63.7%
[8]
  viability, T/C: 82.7%
Second compound 0.3 µM, first compound 0.000316 µM
  viability, T/C: 81.7%
Second compound 0.3 µM, first compound 0.001 µM
  viability, T/C: 85.7%
[9]
  viability, T/C: 83.8%
[10]
  viability, T/C: 90.8%
[11]
  viability, T/C: 69.5%
[12]
  viability, T/C: 75%
Second compound 0.949 µM, first compound 0.000316 µM
  viability, T/C: 87.9%
Second compound 0.949 µM, first compound 0.001 µM
  viability, T/C: 87.7%
[13]
  viability, T/C: 98%
[14]
  viability, T/C: 74.2%
[15]
  viability, T/C: 72.5%
[16]
  viability, T/C: 66.7%
Second compound 3 µM, first compound 0.000316 µM
  viability, T/C: 83.9%
Second compound 3 µM, first compound 0.001 µM
  viability, T/C: 81.4%
[17]
  viability, T/C: 60.3%
[18]
  viability, T/C: 59.8%
[19]
  viability, T/C: 68.9%
[20]
  viability, T/C: 65.8%
